Data: the supplement of paper PMC5908809

Columns and labels:
[1] = tested on: SNK-6 (IL-2 2.5 ng/mL); assay: percent inhibition of viability; higher = more inhibition; settings: 72 h
[2] = tested on: KAI3 (IL-2 2.5 ng/mL); assay: as above; settings: 72 h
[3] = tested on: normal primary NK cells, pool 2 (3 donors) (IL-2 2.5 ng/mL); assay: as above; settings: 72 h
[4] = tested on: normal primary NK cells, pool 1 (3 donors) (IL-2 2.5 ng/mL); assay: as above; settings: 72 h
[5] = tested on: KHYG-1 (IL-2 2.5 ng/mL); assay: as above; settings: 72 h
[6] = tested on: NK-YS (IL-2 2.5 ng/mL); assay: as above; settings: 72 h
[7] = tested on: normal primary NK cells, pool 1 (3 donors), resting (IL-2 0 ng/mL); assay: as above; settings: 72 h
[8] = tested on: YT (IL-2 2.5 ng/mL); assay: as above; settings: 72 h
[9] = tested on: IMC-1 (IL-2 20 ng/mL); assay: as above; settings: 72 h
[10] = tested on: DERL-7 (IL-2 2.5 ng/mL); assay: as above; settings: 72 h
[11] = tested on: normal primary NK cells, pool 3 (3 donors) (IL-2 2.5 ng/mL); assay: as above; settings: 72 h
[12] = tested on: NK-92 (IL-2 2.5 ng/mL); assay: as above; settings: 72 h
[13] = tested on: NKL (IL-2 2.5 ng/mL); assay: as above; settings: 72 h
[14] = tested on: SNK-6 (IL-2 2.5 ng/mL); assay: drug sensitivity score (DSS) (DSS units); higher = more sensitive; extreme values may be limits of the assay; settings: 72 h
[15] = tested on: KAI3 (IL-2 2.5 ng/mL); assay: as above; settings: 72 h
[16] = tested on: normal primary NK cells, pool 2 (3 donors) (IL-2 2.5 ng/mL); assay: as above; settings: 72 h
[17] = tested on: normal primary NK cells, pool 1 (3 donors) (IL-2 2.5 ng/mL); assay: as above; settings: 72 h
[18] = tested on: KHYG-1 (IL-2 2.5 ng/mL); assay: as above; settings: 72 h
[19] = tested on: NK-YS (IL-2 2.5 ng/mL); assay: as above; settings: 72 h
[20] = tested on: normal primary NK cells, pool 1 (3 donors), resting (IL-2 0 ng/mL); assay: as above; settings: 72 h
[21] = tested on: YT (IL-2 2.5 ng/mL); assay: as above; settings: 72 h
[22] = tested on: IMC-1 (IL-2 20 ng/mL); assay: as above; settings: 72 h
[23] = tested on: DERL-7 (IL-2 2.5 ng/mL); assay: as above; settings: 72 h
[24] = tested on: normal primary NK cells, pool 3 (3 donors) (IL-2 2.5 ng/mL); assay: as above; settings: 72 h
[25] = tested on: NK-92 (IL-2 2.5 ng/mL); assay: as above; settings: 72 h
[26] = tested on: NKL (IL-2 2.5 ng/mL); assay: as above; settings: 72 h
[27] = tested on: normal NK cells expanded with K562-aAPC; assay: percent inhibition of viability; higher = more inhibition; settings: 72 h, IL-2 2.5 ng/mL
Description: (§1)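 Drug sensitivity and resistance testing on K562-aAPC-expanded normal NK cells: 5 concentrations (10-fold steps over a 10,000-fold range), 72 h at 37 °C, viability by CellTiter-Glo normalised to DMSO and benzethonium chloride controls; DSS from the fitted curve.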

[28] = tested on: normal NK cells expanded with K562-aAPC; assay: drug sensitivity score (DSS) (DSS units); higher = more sensitive; extreme values may be limits of the assay; settings: 72 h; IL-2 2.5 ng/mL
Description: as §1

Clc1ccc(C(c2ccccc2Cl)C(Cl)Cl)cc1 (configuration not stated) [Mitotane] (max concentration tested 10000 nM)
percent inhibition of viability [%]
Settings	1 nM	10 nM	100 nM	1000 nM	10000 nM
[1]	11.9	12.4	-5.92	-1.09	-8.81
[2]	-6.14	-3.83	-3.7	-6.65	-4.73
[3]	-6.28	-4.83	-5.23	-1.37	-4.6
[4]	-4.65	-4.88	5.61	-1.23	-0.57
[5]	-5.54	-6.16	-6.75	-7.76	-6.11
[6]	-3.11	-4.91	-8.11	-1.41	-4.03
[7]	-7.77	-15.2	11.9	-9.1	7.07
[8]	-5.71	-7.2	-6.08	-5.64	-3.1
[9]	-4	-2.56	-9	-5.63	-8.85
[10]	-3.98	-2.6	-1.88	-5.27	1.52
[11]	-8.66	-9.61	-7	-8.07	0.73
[12]	-11.9	-11.6	-10.9	-14.2	-13.7
[13]	-23.5	-31.7	-25.8	-21.9	-16.6
[27]	-3.47	-5.5	-2.42	-6.05	-4.65

Settings	drug sensitivity score
[14]	0
[15]	0
[16]	0
[17]	0
[18]	0
[19]	0
[20]	0
[21]	0
[22]	0
[23]	0
[24]	0
[25]	0
[26]	0
[28]	0

CC1(C)CNc2cc(NC(=O)c3cccnc3NCc3ccncc3)ccc21 [Motesanib] (max concentration tested 10000 nM)
percent inhibition of viability [%]
Settings	1 nM	10 nM	100 nM	1000 nM	10000 nM
[1]	-15.2	-22.6	-22.4	-32.4	-29.5
[2]	-8.29	-1.63	-3.65	2.07	23.2
[3]	-7.61	1.62	3.62	1.34	2.65
[4]	-3.57	3.71	11	2.82	-3.82
[5]	-8.69	-5.06	-3.55	8.47	9.44
[6]	-4.47	-3.14	-5.16	6.4	15
[7]	4.22	16.2	15.4	16.6	11.9
[8]	-3.76	-2.12	-1.24	6.34	14.4
[9]	-10.7	-4.04	-2.1	5	16.6
[10]	8.61	2.19	10.7	-4.45	-7.84
[11]	-2.89	5.36	3.67	3.63	9.45
[12]	5.17	2.14	10.4	20.8	17.9
[13]	-8.65	-10.7	-6.54	20	30.4
[27]	-5.87	-5.96	-6.1	8.26	11.9

Settings	drug sensitivity score
[14]	0
[15]	1.11
[16]	0
[17]	0
[18]	0
[19]	0.73
[20]	0
[21]	0.65
[22]	0.85
[23]	0
[24]	0
[25]	3.26
[26]	3.62
[28]	0.32

CNC(=O)c1ccc(-c2cnc3ncc(Cc4ccc5ncccc5c4)n3n2)cc1F [NVP-INC280] (max concentration tested 1000 nM)
percent inhibition of viability [%]
Settings	0.1 nM	1 nM	10 nM	100 nM	1000 nM
[1]	1.66	-4.69	8.68	23.7	31.8
[2]	-3.13	-7.87	2.81	8.6	10.3
[3]	-5.16	-9.82	0.45	-1.98	7.71
[4]	-3.26	-0.85	-0.05	-8.05	-1.86
[5]	0.53	0.71	6.28	8.45	7.71
[6]	-3.18	-2.55	2.09	4.91	7.49
[7]	-4.36	11.4	-16.1	-15.8	-5.95
[8]	-0.04	-0.12	2.87	3.88	14.8
[9]	0.35	-0.99	7.3	10.2	14.7
[10]	-5.28	4.26	-9.16	-6.92	-4.89
[11]	-4.63	-9.7	-8.57	-10.9	-0.53
[12]	-4.47	-11.1	1.26	-6.37	7.6
[13]	-14.8	-12	-3.62	-0.32	1.94
[27]	3.07	-1.65	0.35	12.4	9.59

Settings	drug sensitivity score
[14]	4.62
[15]	0.03
[16]	0
[17]	0
[18]	0
[19]	0
[20]	0
[21]	0.42
[22]	0.81
[23]	0
[24]	0
[25]	0
[26]	0
[28]	0.67
